Measurements reported in PMC3355318 (Toxicological Sciences, 2012).

Legend:
Huh-7 cells = conditions: ref Lin et al., 2012; cited from earlier work
HepG2 cells = conditions: ref Wang et al., 2002; cited from earlier work
[1] = system: 3D spheroids constructed from immortal human C3A hepatocytes (HepG2/C3A)
[2] = ref Schulz and Schmoldt, 2003; cited from earlier work

SMILES | LD50 converted from published LC50 (Huh-7 cells) | LD50 converted from published LC50 (HepG2 cells) | cellular ATP production at low compound concentrations [1] | LD50 ([1]; human) | Terminal elimination half-life [2]
CC(=O)Nc1ccc(O)cc1 [APAP, Acetaminophen] | 4.13 mg/mg | 82.32 mg/mg | – | – | –
CN(C)C(=N)N=C(N)N [Metformin, metformin] | – | – | slightly increased | 2.76 mg compound/mg cellular protein | –
[H]/N=C(/N)N/C(=N/[H])NCCc1ccccc1 [Phenformin, phenformin] | – | – | not seen | – | –
CCCC(CCC)C(=O)O [Valproic acid, valproic acid] | – | – | not seen | – | 15 h
